Data taken from the NIST ThermoML archive (doi:10.1016/j.jct.2006.05.004).

How the values were obtained:
[1] = excess molar enthalpy (molar enthalpy of mixing); xn = mol fraction of the nth substance listed; details: 298.15 K, 101 kPa, Liquid
[2] = xn = mol fraction of the nth substance listed; details: 298.15 K, 101 kPa, Liquid

BrCCCCCCBr [1,6-dibromohexane] + CCC(=O)OC
Details	excess molar enthalpy [kcal/mol]	mass density [kg/m3]
[1], x2 = 0.0951	0.0356	–
[1], x2 = 0.1915	0.0572	–
[1], x2 = 0.2814	0.0727	–
[1], x2 = 0.3659	0.0818	–
[1], x2 = 0.4423	0.0858	–
[1], x2 = 0.5073	0.0845	–
[1], x2 = 0.5644	0.0809	–
[1], x2 = 0.6136	0.076	–
[1], x2 = 0.6648	0.067	–
[1], x2 = 0.7136	0.0588	–
[1], x2 = 0.7663	0.0488	–
[1], x2 = 0.817	0.0397	–
[1], x2 = 0.8647	0.0308	–
[1], x2 = 0.9137	0.0207	–
[1], x2 = 0.9606	0.0103	–
[2], x2 = 0.0903	–	1557.49
[2], x2 = 0.1731	–	1517.27
[2], x2 = 0.254	–	1475.55
[2], x2 = 0.3276	–	1435.11
[2], x2 = 0.3987	–	1393.7
[2], x2 = 0.4603	–	1355.72
[2], x2 = 0.5254	–	1313.37
[2], x2 = 0.5807	–	1275.39
[2], x2 = 0.6388	–	1233.34
[2], x2 = 0.695	–	1190.53
[2], x2 = 0.7429	–	1152.05
[2], x2 = 0.7914	–	1111.32
[2], x2 = 0.838	–	1070.17
[2], x2 = 0.8789	–	1032.36
[2], x2 = 0.9195	–	993.3
[2], x2 = 0.9621	–	950.1

BrCCBr [1,2-dibromoethane] + COC(C)=O
Details	excess molar enthalpy [kcal/mol]	mass density [kg/m3]
[1], x2 = 0.0678	0.0234	–
[1], x2 = 0.1329	0.0398	–
[1], x2 = 0.2086	0.0538	–
[1], x2 = 0.2791	0.062	–
[1], x2 = 0.3449	0.0668	–
[1], x2 = 0.4079	0.0679	–
[1], x2 = 0.4651	0.0656	–
[1], x2 = 0.5145	0.0616	–
[1], x2 = 0.5219	0.0606	–
[1], x2 = 0.559	0.0568	–
[1], x2 = 0.5731	0.055	–
[1], x2 = 0.6281	0.0477	–
[1], x2 = 0.6875	0.0384	–
[1], x2 = 0.7492	0.0287	–
[1], x2 = 0.8149	0.0208	–
[1], x2 = 0.8808	0.0122	–
[1], x2 = 0.9429	0.00631	–
[2], x2 = 0.0644	–	2093.03
[2], x2 = 0.1265	–	2019.85
[2], x2 = 0.186	–	1949.51
[2], x2 = 0.2463	–	1877.44
[2], x2 = 0.3093	–	1801.67
[2], x2 = 0.3675	–	1731.26
[2], x2 = 0.4309	–	1653.78
[2], x2 = 0.4879	–	1583.49
[2], x2 = 0.5507	–	1505.69
[2], x2 = 0.6003	–	1443.71
[2], x2 = 0.7248	–	1286.24
[2], x2 = 0.7776	–	1218.54
[2], x2 = 0.8338	–	1146.14
[2], x2 = 0.8868	–	1076.96
[2], x2 = 0.9443	–	1001.13

BrCCCCBr [1,4-dibromobutane] + COC(C)=O
Details	excess molar enthalpy [kcal/mol]	mass density [kg/m3]
[1], x2 = 0.0848	0.0432	–
[1], x2 = 0.1755	0.0741	–
[1], x2 = 0.2635	0.0955	–
[1], x2 = 0.3449	0.109	–
[1], x2 = 0.4161	0.116	–
[1], x2 = 0.4816	0.118	–
[1], x2 = 0.5389	0.115	–
[1], x2 = 0.5872	0.109	–
[1], x2 = 0.6316	0.103	–
[1], x2 = 0.6695	0.0954	–
[1], x2 = 0.7038	0.089	–
[1], x2 = 0.755	0.0763	–
[1], x2 = 0.8095	0.062	–
[1], x2 = 0.8632	0.046	–
[1], x2 = 0.9128	0.0316	–
[1], x2 = 0.9584	0.0149	–
[2], x2 = 0.0837	–	1770.14
[2], x2 = 0.1689	–	1713.04
[2], x2 = 0.2373	–	1664.79
[2], x2 = 0.3235	–	1601.13
[2], x2 = 0.3783	–	1558.38
[2], x2 = 0.4433	–	1505.87
[2], x2 = 0.5073	–	1451.51
[2], x2 = 0.5682	–	1397.42
[2], x2 = 0.6216	–	1347.79
[2], x2 = 0.6771	–	1293.95
[2], x2 = 0.7431	–	1226.93
[2], x2 = 0.8273	–	1135.92
[2], x2 = 0.9151	–	1033.42
[2], x2 = 0.9603	–	977.5

BrCCCCCCBr [1,6-dibromohexane] + COC=O
Details	excess molar enthalpy [kcal/mol]	mass density [kg/m3]
[1], x2 = 0.099	0.0911	–
[1], x2 = 0.2052	0.166	–
[1], x2 = 0.3188	0.231	–
[1], x2 = 0.4099	0.26	–
[1], x2 = 0.4481	0.27	–
[1], x2 = 0.5059	0.278	–
[1], x2 = 0.5777	0.278	–
[1], x2 = 0.6385	0.268	–
[1], x2 = 0.69	0.252	–
[1], x2 = 0.7201	0.241	–
[1], x2 = 0.7507	0.227	–
[1], x2 = 0.7946	0.203	–
[1], x2 = 0.8411	0.169	–
[1], x2 = 0.9115	0.108	–
[1], x2 = 0.9775	0.0335	–
[2], x2 = 0.0951	–	1574.69
[2], x2 = 0.1373	–	1561.81
[2], x2 = 0.18	–	1547.9
[2], x2 = 0.2331	–	1529.55
[2], x2 = 0.3709	–	1475.52
[2], x2 = 0.4924	–	1417.67
[2], x2 = 0.5984	–	1357.11
[2], x2 = 0.6952	–	1290.94
[2], x2 = 0.799	–	1204.62
[2], x2 = 0.8251	–	1179.95
[2], x2 = 0.9038	–	1095.21
[2], x2 = 0.9183	–	1078.3
[2], x2 = 0.9504	–	1037.23
[2], x2 = 0.9718	–	1007.96
